Measurements reported in US8389027B2 (priority 2008, dated 2013).

Columns and labels:
[1] = system: S. pombe strain expressing M. grisea Abc3 (MBY 2838); format: cell-based, Schizosaccharomyces pombe; conditions: MBY 2838, compound in growth medium
wild-type S. pombe [2] = assay: Estimation of minimum inhibitory concentration for S. pombe; format: cell-based, Schizosaccharomyces pombe; conditions: different concentrations, 6 h incubation
Procedure: Approximately, 1×10^7 cells/ml from overnight grown culture of MBY 104 was inoculated in 20 ml fresh YES medium in 250 ml flasks. The cells were incubated at 25° C. on a shaker in absence or presence of different concentrations of digoxin. A stock of 1 mM standard glycosides (Sigma Aldrich, USA) was prepared by adding 7.8 mg, 3.9 mg, and 7.28 mg of digoxin, digoxigenin, and ouabain, respectively, in 10 ml of 50% ethanol. A working stock of 200 μM solution was prepared by diluting 1 mM stock with fresh YES medium. Further dilutions were made from this working stock by adjusting total volume with YES to 20 ml. Cell density of untreated or treated wild-type yeast cells was checked in terms of absorbance after every one hour over 5 to 6 generations. Experiments were performed in duplicate each time and confirmed by several biological replicates.
Wild-type S. pombe cells were grown in absence or presence of different concentrations of digoxin, digoxigenin, or ouabain and growth kinetics was studied over 6-8 h.

[3] = system: rice or barley leaf tissue; format: in vivo
Zebra fish larvae heart = format: in vivo, Danio rerio; conditions: at 26 (h of treatment); control 12.71
[4] = system: wild-type M. grisea Guy11 on rice leaf sheath or onion epidermis; format: in vivo, Magnaporthe grisea; conditions: summary statement
[5] = system: Magnaporthe Guy11 on detached barley leaf; format: in vivo, Magnaporthe grisea; conditions: 200 μM
wild-type S. pombe [6] = format: cell-based, Schizosaccharomyces pombe

C[C@H]1O[C@@H](O[C@H]2[C@@H](O)C[C@H](O[C@H]3[C@@H](O)C[C@H](O[C@H]4CC[C@@]5(C)[C@H](CC[C@@H]6[C@@H]5C[C@@H](O)[C@]5(C)[C@@H](C7=CC(=O)OC7)CC[C@]65O)C4)O[C@@H]3C)O[C@@H]2C)C[C@H](O)[C@@H]1O [digoxin]
effect on S. pombe cells expressing M. grisea Abc3p [1]: did not show any effects
absorbance of treated S. pombe cells (wild-type S. pombe [2]): decrease in absorbance in a dose dependent manner
elicitor-like response in the host plants ([3]; exogenous application to leaf tissue): induced hypersensitive reaction
H2O2 level as Cerium perhydroxide precipitate (CeCl3 staining, TEM) ([3]; treated leaf tissue, 48 h): accumulation of Cerium perhydroxide precipitate in the cell wall and cell membrane
state of host cells upon treatment ([3]; treated leaf tissue, TEM): plasmolysis
heart rate (time taken for 20 beats) (Zebra fish larvae heart): 13.79 s
appressorial function of host penetration [4]: blocked appressorial function of host penetration
disease symptoms on detached barley leaf ([5]; controls symptomatic from day 3): failed to elicit any disease symptoms
disease symptoms, leaves inoculated with 100 conidia per droplet ([5]; 6 dpi, 100 conidia per droplet): did not show any symptoms
severity of disease compared to control leaves ([5]; day 6 post inoculation): significantly reduced
cell density (OD600 nm) of S. pombe, growth kinetics (wild-type S. pombe [6]): inhibitory effects
